Consider one compound from article PMC12753220, “A new amidohydrolase and β-oxidation–like pathway for piperine catabolism in soil actinomycetes” (The Journal of Biological Chemistry, 2025).

The assay addresses T1, PipM (piperine hydrolase) (Rhodococcus erythropolis, UniProt Z9TMQ3P3F8).
T1 construct: full length, no signal peptide, untagged (pET24a(+)-pipM), E. coli Rosetta2 (DE3); ORF 1389 nt (462 residues deduced), ~50 kDa monomer, homotetramer ~220 kDa; N-terminus of native protein NSFALSNV
T1 sequence (Z9TMQ3P3F8 1-462): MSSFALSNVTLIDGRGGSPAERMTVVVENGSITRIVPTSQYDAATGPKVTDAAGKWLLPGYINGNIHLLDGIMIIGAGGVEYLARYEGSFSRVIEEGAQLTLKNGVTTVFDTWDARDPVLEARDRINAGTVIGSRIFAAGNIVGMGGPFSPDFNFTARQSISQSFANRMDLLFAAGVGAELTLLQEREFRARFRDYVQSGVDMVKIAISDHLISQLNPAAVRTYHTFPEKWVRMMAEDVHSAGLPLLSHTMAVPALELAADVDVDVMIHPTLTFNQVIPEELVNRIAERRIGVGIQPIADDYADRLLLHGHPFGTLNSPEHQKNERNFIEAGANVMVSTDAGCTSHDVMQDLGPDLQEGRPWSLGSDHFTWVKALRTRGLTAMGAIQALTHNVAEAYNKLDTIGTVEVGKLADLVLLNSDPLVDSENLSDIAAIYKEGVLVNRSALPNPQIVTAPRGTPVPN
Briefly: HPLC at […] nm of piperic acid formation, Michaelis-Menten fit. Particulars: 50 mM potassium phosphate pH 7.5, 28 °C, 1 min, 0.116 μM PipM, 0.001-0.5 mM piperine. It is filed as biochemical.

The Km is the concentration of substrate that gives half-maximal velocity. Consider `O=C(/C=C/C=C/c1ccc2c(c1)OCO2)N1CCCCC1` [piperine], for which the Michaelis-Menten constant (Km) stood at 2.11 ± 0.31 µM.
